Tested on: Sprague-Dawley rats
Assay: Phenotypic and functional indicia of immunosuppression in treated rats
Assay type: in vivo
Details: e.g. influenza and lymphocytic coriomeningitis virus

CC(C)C[C@H](N)CS [leucinethiol]
resistance to viral challenge: reduced

Reference: US7232570B2, “ERAAP modulators regulate immune responses” (Regents of the University of California, priority 2002, dated 2007)
